The record followed here is US10640469B2, “Polyhydroxyphthalazinone compound, preparation method thereof and use thereof” (RejuvGen Pharmaceuticals, Inc., priority 2017, dated 2020).

Assay [1] concerns the target T1, ER-α receptor (Homo sapiens, UniProt P03372).
T1 sequence (P03372 1-595): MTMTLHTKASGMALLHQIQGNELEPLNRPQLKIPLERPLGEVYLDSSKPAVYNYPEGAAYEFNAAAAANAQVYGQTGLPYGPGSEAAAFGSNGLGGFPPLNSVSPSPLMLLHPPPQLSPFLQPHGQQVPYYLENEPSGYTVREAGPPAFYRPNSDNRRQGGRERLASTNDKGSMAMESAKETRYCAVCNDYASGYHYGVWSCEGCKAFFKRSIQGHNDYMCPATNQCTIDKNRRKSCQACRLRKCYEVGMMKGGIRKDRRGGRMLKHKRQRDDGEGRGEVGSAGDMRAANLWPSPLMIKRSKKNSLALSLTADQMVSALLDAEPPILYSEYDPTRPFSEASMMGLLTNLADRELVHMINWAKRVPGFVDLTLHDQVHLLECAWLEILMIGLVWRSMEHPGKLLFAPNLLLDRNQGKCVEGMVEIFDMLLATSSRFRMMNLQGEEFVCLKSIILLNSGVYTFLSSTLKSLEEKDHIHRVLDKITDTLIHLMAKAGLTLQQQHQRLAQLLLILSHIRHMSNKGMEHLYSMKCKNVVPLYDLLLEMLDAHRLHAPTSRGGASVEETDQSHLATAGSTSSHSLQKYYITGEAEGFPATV
Kind of assay: Radioligand ([3H]-estradiol) competition binding to estrogen receptor, ER-α. The conditions noted are these: [3H]-estradiol 100 nM, incubated overnight at 4° C., GF/B filtration, scintillation counting; read-out: Affinity constant of ER-α receptor. How it is done: (§1) The activity of the compound was obtained as follows: the compound was first dissolved in DMSO and formulated into 6-8 concentration gradient solutions. The estrogen receptor and radiolabeled estradiol ([^3H]-estradiol, 100 nM) were added into the buffer and mixed to prepare a reaction solution. Each compound concentration gradient solution was separately added into the reaction solution, mixed, and incubated overnight at 4° C. so that the compound and estradiol fully reacted with the estrogen receptor. Then, the TopCount NXT Liquid Scintillation Counter (Perkin Elmer) was used for the radioactivity intensity measurement after GF/B filtration. Data processing was performed according to the detected values of each concentration to obtain the affinity constant of the compound with estrogen receptor, as shown in the following table: […]

The target in assay [2] is ER-β receptor (Homo sapiens, UniProt Q92731). Kind of assay: Radioligand ([3H]-estradiol) competition binding to estrogen receptor, ER-β. The note with it: [3H]-estradiol 100 nM, incubated overnight at 4° C., GF/B filtration, scintillation counting; read-out: Affinity constant of ER-β receptor. How it is done:
as §1

Sequence of ER-β receptor (Q92731 whole entry): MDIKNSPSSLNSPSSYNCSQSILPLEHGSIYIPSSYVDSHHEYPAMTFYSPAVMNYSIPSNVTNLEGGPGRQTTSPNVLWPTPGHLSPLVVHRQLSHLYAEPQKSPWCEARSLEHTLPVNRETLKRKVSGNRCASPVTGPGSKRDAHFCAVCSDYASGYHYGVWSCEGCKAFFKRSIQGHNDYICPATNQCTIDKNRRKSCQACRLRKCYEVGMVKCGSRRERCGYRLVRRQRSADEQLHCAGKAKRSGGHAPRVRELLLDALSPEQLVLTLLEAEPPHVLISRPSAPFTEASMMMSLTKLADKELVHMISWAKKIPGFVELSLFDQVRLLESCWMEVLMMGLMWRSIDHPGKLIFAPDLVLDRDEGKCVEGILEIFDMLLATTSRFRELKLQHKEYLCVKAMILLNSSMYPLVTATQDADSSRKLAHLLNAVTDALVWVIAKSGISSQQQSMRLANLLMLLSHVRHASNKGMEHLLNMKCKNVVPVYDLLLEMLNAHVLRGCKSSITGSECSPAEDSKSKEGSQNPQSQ

For `O=c1c2c(O)cc(O)cc2cnn1-c1ccc(O)cc1`, the values for the Ki in assay [1] and in assay [2] were 1200 nM and 105 nM, respectively.

For the compound `CCc1nn(-c2ccc(O)cc2)c(=O)c2c(O)cc(O)cc12`, the Ki in assay [1] came to 98 nM; in assay [2] it was 10 nM.

For the compound `O=c1c2c(O)cc(O)c(Br)c2cnn1-c1ccc(O)cc1`, the Ki in assay [1] is 3600 nM; in assay [2] it was 1500 nM.

For the compound `Cc1nn(-c2ccc(O)cc2)c(=O)c2c(O)cc(O)cc12`, the Ki in assay [1] is 76 nM; in assay [2] it was 8 nM.
